Test results from patent publication US10787443B2, “RAF-degrading conjugate compounds” (ZAMBONI CHEM SOLUTIONS INC., priority 2017, dated 2020).

Legend:
[1] = target: BRAF/VHL (Homo sapiens, UniProt P15056+P40337); conditions: FIG. 12; various concentrations
[2] = tested on: GST-Braf kinase domain and biotinylated E3 substrate adapter (VHL/EloB/EloC complex or CRBN318-425); experiment: Dimerization assay (AlphaScreen/AlphaLisa), RAF/E3 dimerization; assay type: binding; conditions: Table 17; relative value; compounds 4 fold serial dilutions from 20 μM
[3] = target: T1, CRAF (CRAF fusion protein with a fluorescent protein) in Calu-6 cells (Homo sapiens, UniProt P04049); experiment: Degradation assay, fluorescent CRAF fusion protein levels in Calu-6 cells (IncuCyte S3); assay type: cell-based; conditions: fluorescence/confluence
T1 construct: fluorescent protein (green); expressed in transfected cells; host or cells: Calu-6
Protocol: Calu-6 cells were stably transfected with a CRAF fusion protein with a fluorescent protein attached to the C-terminus of CRAF in order to monitor protein levels via fluorescence. Cells were seeded into a 96-well plate and allowed to adhere overnight. The next day cells are treated with compounds at the doses indicated in the table below and analyzed over time. Data was collected by monitoring Fluorescent CRAF protein levels an IncuCyte S3 Live Cell Analysis System (Essen BioScience). […] Calu6_CRAF fusion protein cells are imaged and analyzed using an Incucyte S3 live-cell analysis system (Essen Biosciences). Fluorescence signal is due to expression of the fluorescent protein covalently fused to the C-terminus of CRAF and degradation is assessed by measuring fluorescence/confluence (˜cell number) after treatment with compounds of the present disclosure. Phase contrast images are analyzed using Incucyte S3 software. Percent confluence is calculated using a phase contrast mask to quantify the area of the image occupied by the Calu6_CRAF fusion protein cells. Fluorescent images are analyzed using Incucyte S3 software. Green Corrected Units (GCU) is calculated using a fluorescence mask to quantify the area of the image occupied by green fluorescent signal and the intensity of the signal. […] As discussed above, degradation is measured as a function of fluorescence/confluence.

T1 sequence (P04049 whole entry, the tested form may be a part): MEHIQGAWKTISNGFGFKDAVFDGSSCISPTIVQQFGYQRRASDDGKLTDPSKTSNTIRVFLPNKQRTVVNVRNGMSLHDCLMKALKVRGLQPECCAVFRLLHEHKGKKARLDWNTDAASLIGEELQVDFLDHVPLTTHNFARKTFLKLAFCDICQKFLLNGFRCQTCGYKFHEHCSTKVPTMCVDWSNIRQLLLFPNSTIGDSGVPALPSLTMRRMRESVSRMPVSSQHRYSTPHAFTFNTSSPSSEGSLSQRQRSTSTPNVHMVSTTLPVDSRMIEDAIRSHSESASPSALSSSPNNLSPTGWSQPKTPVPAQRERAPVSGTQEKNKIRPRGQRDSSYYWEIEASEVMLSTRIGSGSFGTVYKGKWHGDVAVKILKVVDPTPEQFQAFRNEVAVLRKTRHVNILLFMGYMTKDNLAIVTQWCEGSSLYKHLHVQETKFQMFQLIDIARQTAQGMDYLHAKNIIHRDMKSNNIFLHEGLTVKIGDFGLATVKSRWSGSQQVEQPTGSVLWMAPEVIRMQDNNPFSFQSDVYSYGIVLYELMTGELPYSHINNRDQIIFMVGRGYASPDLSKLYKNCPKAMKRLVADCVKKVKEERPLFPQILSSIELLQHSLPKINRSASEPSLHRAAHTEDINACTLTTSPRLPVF
BRAF/VHL, sequence (P15056 457-717 limits assumed): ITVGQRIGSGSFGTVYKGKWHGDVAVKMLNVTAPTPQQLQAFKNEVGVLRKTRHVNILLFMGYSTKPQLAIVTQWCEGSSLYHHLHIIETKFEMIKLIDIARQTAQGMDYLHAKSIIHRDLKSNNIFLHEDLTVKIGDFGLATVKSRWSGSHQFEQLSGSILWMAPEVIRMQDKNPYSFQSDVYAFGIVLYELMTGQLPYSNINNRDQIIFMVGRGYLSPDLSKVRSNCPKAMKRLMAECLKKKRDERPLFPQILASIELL
BRAF/VHL, sequence (P40337 54-213 limits assumed): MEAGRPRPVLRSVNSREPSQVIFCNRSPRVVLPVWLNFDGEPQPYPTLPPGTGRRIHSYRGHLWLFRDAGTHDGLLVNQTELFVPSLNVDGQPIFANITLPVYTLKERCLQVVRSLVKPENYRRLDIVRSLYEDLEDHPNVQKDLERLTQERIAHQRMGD
BRAF/VHL, sequence (Q15370 whole entry partner, the tested form may be a part): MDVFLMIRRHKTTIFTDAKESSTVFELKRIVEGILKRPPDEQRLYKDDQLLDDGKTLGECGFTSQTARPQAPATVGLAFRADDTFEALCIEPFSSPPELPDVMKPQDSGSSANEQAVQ
BRAF/VHL, sequence (Q15369 17-112 partner limits assumed): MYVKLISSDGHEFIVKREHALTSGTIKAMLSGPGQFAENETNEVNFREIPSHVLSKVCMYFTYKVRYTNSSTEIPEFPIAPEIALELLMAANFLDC

Row | BRAF/VHL dimerization [1] | RAF/E3 Dimerization [2] | CRAF degradation in Calu6 cells over time ([3]; 5 μM, FIG. 11) | CRAF degradation in Calu6 cells over time ([3]; 15 μM, FIG. 6) | Compound
1 | does not cause dimerization | – | – | – | Cc1ncc(NC(=O)c2cccc(C(F)(F)F)c2)cc1-c1cnc(OC2CCOCC2)c(N2CCOCC2)c1 [RAF709, reference compound]
2 | – | +++++ (RAF/E3 Dimerization ≥75%) | CRAF degradation | – | Cc1ncc(NC(=O)c2cccc(C(F)(F)F)c2)cc1-c1cnc(OCCOCCOCCOCCOCC(=O)NCCOCCCc2cccc3c2CN(C2CCC(=O)NC2=O)C3=O)c(N2CCOCC2)c1 (centres unmarked) [Compound 2.016, N-(2-(3-(2-(2,6-dioxopiperidin-3-yl)-1-oxoisoindolin-4-yl)propoxy)ethyl)-14-((2′-methyl-5-morpholino-5′-(3-(trifluoromethyl)benzamido)-[3,3′-bipyridin]-6-yl)oxy)-3,6,9,12-tetraoxatetradecan-1-amide]
3 | – | ++ (25% > RAF/E3 Dimerization ≥ 5%) | – | CRAF degradation | Cc1ncc(NC(=O)c2cccc(C(F)(F)F)c2)cc1-c1cnc(OCCOCCOCCOCC(=O)NCCOCCCc2cccc3c2C(=O)N(C2CCC(=O)NC2=O)C3=O)c(N2CCOCC2)c1 (centres unmarked) [Compound 2.021, N-(6′-((18-(2-(2,6-dioxopiperidin-3-yl)-1,3-dioxoisoindolin-4-yl)-11-oxo-3,6,9,15-tetraoxa-12-azaoctadecyl)oxy)-2-methyl-5′-morpholino-[3,3′-bipyridin]-5-yl)-3-(trifluoromethyl)-benzamide]
